Measurements taken from ChEMBL document CHEMBL4414590, “Discovery of SIAIS178 as an Effective BCR-ABL Degrader by Recruiting Von Hippel-Lindau (VHL) E3 Ubiquitin Ligase” (J Med Chem, 2019).
Activity calls are given as the source filed them. The calls are words filed in the database; no cut-off is given here.

Assays:
KU812 cell line = assay: Growth inhibition of human KU812 cells incubated for 2 days by CCK8 assay; assay type: functional, cell-based
[1] = target: von Hippel-Lindau disease tumor suppressor/Mast/stem cell growth factor receptor Kit (Homo sapiens) (UniProt P10721+P40337); assay: Protac activity against VHL/KIT in human K562 cells assessed as reduction in Kit protein levels at 1 to 100 nM incubated for 16 hrs by Western blot analysis; assay type: cell-based
[2] = system: von Hippel-Lindau disease tumor suppressor/Tyrosine-protein kinase ABL1/Breakpoint cluster region protein (Homo sapiens), P00519+P11274+P40337 [T315I]; assay: Protac activity against VHL/BCR-ABL T315I mutant (unknown origin) expressed in human U937 cells assessed as induction of BCR-ABL degradation incubated for 16 hrs by Western blot analysis; assay type: cell-based
[3] = target: von Hippel-Lindau disease tumor suppressor/Receptor-interacting serine/threonine-protein kinase 2 (Homo sapiens) (UniProt O43353+P40337); assay: Protac activity against VHL/RIPK2 in human K562 cells assessed as reduction in RIPK2 protein levels at 1 to 100 nM incubated for 16 hrs by Western blot analysis; assay type: cell-based
[4] = target: von Hippel-Lindau disease tumor suppressor/Tyrosine-protein kinase ABL2 (Homo sapiens) (UniProt P42684); assay: Protac activity against VHL/BCR-ABL in human K562 cells assessed as reduction in ABL2 protein levels at 100 nM incubated for 16 hrs by multiplexed tandem mass spectrometry
[5] = system: von Hippel-Lindau disease tumor suppressor/Tyrosine-protein kinase ABL1/Breakpoint cluster region protein (Homo sapiens), P00519+P11274+P40337 [T315A]; assay: Protac activity against VHL/BCR-ABL T315A mutant (unknown origin) expressed in human U937 cells assessed as induction of BCR-ABL degradation incubated for 16 hrs by Western blot analysis; assay type: cell-based
[6] = target: T1, von Hippel-Lindau disease tumor suppressor/Tyrosine-protein kinase ABL1/Breakpoint cluster region protein (Homo sapiens, UniProt P00519+P11274+P40337); assay: Protac activity against VHL/BCR-ABL in human K562 cell lysates assessed as induction of pull down of endogenous ABL at 10 to 100 nM in presence of excess immobilized GST-VBC bait by GST-pull down assay; assay type: subcellular; conditions: Lysate
Target sequence in this assay (P00519 whole entry, looked up): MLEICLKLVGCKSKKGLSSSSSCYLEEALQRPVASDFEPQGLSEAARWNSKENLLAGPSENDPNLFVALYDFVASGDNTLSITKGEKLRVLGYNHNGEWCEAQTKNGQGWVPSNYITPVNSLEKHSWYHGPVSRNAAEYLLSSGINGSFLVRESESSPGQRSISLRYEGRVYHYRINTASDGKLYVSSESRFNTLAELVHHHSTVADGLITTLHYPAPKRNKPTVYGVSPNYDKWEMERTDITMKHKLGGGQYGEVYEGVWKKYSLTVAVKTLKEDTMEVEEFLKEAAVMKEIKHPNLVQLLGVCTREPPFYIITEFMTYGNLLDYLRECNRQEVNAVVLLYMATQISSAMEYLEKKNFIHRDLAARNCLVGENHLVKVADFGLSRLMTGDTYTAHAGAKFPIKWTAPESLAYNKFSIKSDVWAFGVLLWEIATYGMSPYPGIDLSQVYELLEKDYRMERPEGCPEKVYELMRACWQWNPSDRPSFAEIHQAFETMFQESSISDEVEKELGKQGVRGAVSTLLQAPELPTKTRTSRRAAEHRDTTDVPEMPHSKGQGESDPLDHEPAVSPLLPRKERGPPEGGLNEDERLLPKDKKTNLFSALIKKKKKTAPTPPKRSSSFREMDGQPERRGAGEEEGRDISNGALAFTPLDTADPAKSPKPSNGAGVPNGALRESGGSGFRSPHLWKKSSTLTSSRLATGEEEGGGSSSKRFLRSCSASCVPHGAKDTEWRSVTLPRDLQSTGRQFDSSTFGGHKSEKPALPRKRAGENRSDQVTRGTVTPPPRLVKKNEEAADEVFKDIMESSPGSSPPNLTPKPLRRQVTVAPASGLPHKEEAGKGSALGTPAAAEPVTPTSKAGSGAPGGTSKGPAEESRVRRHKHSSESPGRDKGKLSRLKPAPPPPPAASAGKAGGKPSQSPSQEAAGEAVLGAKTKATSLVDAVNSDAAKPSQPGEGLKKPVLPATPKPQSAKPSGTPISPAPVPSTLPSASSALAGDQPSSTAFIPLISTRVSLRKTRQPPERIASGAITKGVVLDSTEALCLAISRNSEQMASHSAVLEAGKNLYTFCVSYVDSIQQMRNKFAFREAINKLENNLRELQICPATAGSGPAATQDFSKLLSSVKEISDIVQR
Target sequence in this assay (P11274 whole entry, looked up): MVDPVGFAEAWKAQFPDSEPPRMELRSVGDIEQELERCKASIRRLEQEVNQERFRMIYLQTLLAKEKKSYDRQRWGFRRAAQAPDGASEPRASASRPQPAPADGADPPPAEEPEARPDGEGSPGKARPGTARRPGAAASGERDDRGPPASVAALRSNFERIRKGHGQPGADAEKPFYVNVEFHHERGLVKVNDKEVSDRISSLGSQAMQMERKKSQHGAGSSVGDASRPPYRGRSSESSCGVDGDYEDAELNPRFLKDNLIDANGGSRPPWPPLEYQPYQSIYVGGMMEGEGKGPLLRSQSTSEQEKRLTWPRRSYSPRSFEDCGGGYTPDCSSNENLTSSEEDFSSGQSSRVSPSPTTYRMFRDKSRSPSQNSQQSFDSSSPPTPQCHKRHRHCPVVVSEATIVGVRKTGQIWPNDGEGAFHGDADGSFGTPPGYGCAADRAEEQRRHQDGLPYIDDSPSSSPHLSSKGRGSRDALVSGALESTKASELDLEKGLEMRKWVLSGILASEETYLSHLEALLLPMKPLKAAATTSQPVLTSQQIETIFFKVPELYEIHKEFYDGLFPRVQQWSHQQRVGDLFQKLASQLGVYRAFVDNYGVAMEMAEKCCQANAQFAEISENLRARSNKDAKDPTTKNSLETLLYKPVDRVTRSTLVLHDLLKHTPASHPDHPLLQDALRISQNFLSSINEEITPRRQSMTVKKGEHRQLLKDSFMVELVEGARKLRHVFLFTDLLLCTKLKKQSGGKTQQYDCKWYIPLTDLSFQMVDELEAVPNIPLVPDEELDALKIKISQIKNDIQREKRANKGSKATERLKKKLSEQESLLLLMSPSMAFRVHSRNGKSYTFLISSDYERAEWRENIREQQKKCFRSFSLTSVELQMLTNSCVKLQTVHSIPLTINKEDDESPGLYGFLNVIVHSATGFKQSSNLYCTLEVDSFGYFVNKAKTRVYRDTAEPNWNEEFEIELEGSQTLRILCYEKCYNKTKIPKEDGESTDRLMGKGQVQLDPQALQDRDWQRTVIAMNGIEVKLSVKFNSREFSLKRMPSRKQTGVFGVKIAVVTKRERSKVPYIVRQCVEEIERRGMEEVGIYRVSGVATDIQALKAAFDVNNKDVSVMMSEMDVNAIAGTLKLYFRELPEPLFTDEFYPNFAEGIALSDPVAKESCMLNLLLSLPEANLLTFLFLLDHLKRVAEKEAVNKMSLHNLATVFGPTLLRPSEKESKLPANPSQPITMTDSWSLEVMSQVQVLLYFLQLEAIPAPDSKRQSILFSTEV
Target sequence in this assay (P40337 whole entry, looked up): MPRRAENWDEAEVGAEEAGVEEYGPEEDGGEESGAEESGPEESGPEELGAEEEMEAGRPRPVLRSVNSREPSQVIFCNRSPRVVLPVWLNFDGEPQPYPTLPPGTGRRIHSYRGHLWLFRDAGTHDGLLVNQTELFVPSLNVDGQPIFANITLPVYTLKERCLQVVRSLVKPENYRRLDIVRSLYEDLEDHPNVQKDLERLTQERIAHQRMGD

K562 [7] = assay: Antitumor activity against luciferse expressing human K562 cells xenografted in NOD/SCID mouse assessed as reduction in tumor burden at 5 to 15 mg/kg, ip QD for 12 days by bioluminescence imaging analysis; assay type: functional, organism-based
[8] = target: T1, von Hippel-Lindau disease tumor suppressor/Tyrosine-protein kinase ABL1/Breakpoint cluster region protein; assay: Protac activity against VHL/BCR-ABL in human K562 cells assessed as induction of BCR-ABL degradation at 100 nM incubated up to 24 hrs by Western blot analysis; assay type: cell-based; conditions: TDE = time-dependent effect
Target sequence in this assay (P00519 whole entry, looked up): as the sequence (P00519 whole entry, looked up) above
Target sequence in this assay (P11274 whole entry, looked up): as the sequence (P11274 whole entry, looked up) above
Target sequence in this assay (P40337 whole entry, looked up): as the sequence (P40337 whole entry, looked up) above

[9] = target: T2, Bcr/Abl fusion protein (Homo sapiens) (UniProt P00519+P11274); assay: Inhibition of BCR-ABL phosphorylation in human K562 cells at 1 to 100 nM by Western blot analysis; assay type: cell-based
[10] = target: T1, von Hippel-Lindau disease tumor suppressor/Tyrosine-protein kinase ABL1/Breakpoint cluster region protein; assay: Induction of ternary complex formation between VHL and BCR-ABL (unknown origin) expressed in HEK293 cells expressing N-terminal BCR-ABL LgBit fusion protein and N-terminal SmBit-VHL fusion protein at 1 uM incubated for 1 hr by NanoBit technology based luciferase complementation assay; assay type: cell-based
Target sequence in this assay (P00519 whole entry, looked up): as the sequence (P00519 whole entry, looked up) above
Target sequence in this assay (P11274 whole entry, looked up): as the sequence (P11274 whole entry, looked up) above
Target sequence in this assay (P40337 whole entry, looked up): as the sequence (P40337 whole entry, looked up) above

[11] = target: T1, von Hippel-Lindau disease tumor suppressor/Tyrosine-protein kinase ABL1/Breakpoint cluster region protein; assay: Protac activity against VHL/BCR-ABL in NOD/SCID mouse xenografted with luciferse expressing human K562 cells assessed as induction of BCR-ABL degradation at 5 to 15 mg/kg, ip QD for 4 days by Western blotting analysis; assay type: functional, organism-based
Target sequence in this assay (P00519 whole entry, looked up): as the sequence (P00519 whole entry, looked up) above
Target sequence in this assay (P11274 whole entry, looked up): as the sequence (P11274 whole entry, looked up) above
Target sequence in this assay (P40337 whole entry, looked up): as the sequence (P40337 whole entry, looked up) above

HEK293 = assay: Growth inhibition of human HEK293 cells incubated for 2 days by CCK8 assay; assay type: cell-based; conditions: hek293, 48 h
[12] = target: T1, von Hippel-Lindau disease tumor suppressor/Tyrosine-protein kinase ABL1/Breakpoint cluster region protein; assay: Protac activity against VHL/BCR-ABL in human K562 cells assessed as reduction in BCR-ABL protein levels at 1 to 100 nM incubated for 16 hrs by Western blot analysis; assay type: cell-based
Target sequence in this assay (P00519 whole entry, looked up): as the sequence (P00519 whole entry, looked up) above
Target sequence in this assay (P11274 whole entry, looked up): as the sequence (P11274 whole entry, looked up) above
Target sequence in this assay (P40337 whole entry, looked up): as the sequence (P40337 whole entry, looked up) above

[13] = target: von Hippel-Lindau disease tumor suppressor/Tyrosine-protein kinase Yes (Homo sapiens) (UniProt P07947+P40337); assay: Protac activity against VHL/YES in human K562 cells assessed as reduction in Yes protein levels at 1 to 100 nM incubated for 16 hrs by Western blot analysis; assay type: cell-based
[14] = target: von Hippel-Lindau disease tumor suppressor/Proto-oncogene tyrosine-protein kinase Src (Homo sapiens) (UniProt P12931+P40337); assay: Protac activity against VHL/Src in human K562 cells assessed as reduction in Src protein levels at 1 to 100 nM incubated for 16 hrs by Western blot analysis; assay type: cell-based
K562 [15] = assay: Effect on YES protein level in human K562 cells at 100 nM incubated for 16 hrs by multiplexed tandem mass spectrometry; assay type: ADME, cell-based; conditions: k562, 16 h, 0.1 µM
[16] = target: T1, von Hippel-Lindau disease tumor suppressor/Tyrosine-protein kinase ABL1/Breakpoint cluster region protein; assay: Protac activity against VHL/BCR-ABL in human K562 cell lysates assessed as induction of pull down of endogenous BCR-ABL at 10 to 100 nM in presence of excess immobilized GST-VBC bait by GST-pull down assay; assay type: subcellular; conditions: Lysate
Target sequence in this assay (P00519 whole entry, looked up): as the sequence (P00519 whole entry, looked up) above
Target sequence in this assay (P11274 whole entry, looked up): as the sequence (P11274 whole entry, looked up) above
Target sequence in this assay (P40337 whole entry, looked up): as the sequence (P40337 whole entry, looked up) above

K562 [17] = assay: Effect on BCR-ABL protein levels in human K562 cells at 100 nM up to 24 hrs by Western blot analysis; assay type: ADME, cell-based; conditions: k562, 24 h, 0.1 µM
[18] = target: T1, von Hippel-Lindau disease tumor suppressor/Tyrosine-protein kinase ABL1/Breakpoint cluster region protein; assay: Protac activity against VHL/BCR-ABL in human K562 cells assessed as induction of BCR-ABL degradation pre-treated with 100 nM dasatinib for 2 hrs followed by compound addition at 100 nM and further incubated for 8 hrs by Western blot analysis; assay type: cell-based
K562 [19] = assay: Effect on LYN protein level in human K562 cells at 100 nM incubated for 16 hrs by multiplexed tandem mass spectrometry; assay type: ADME, cell-based; conditions: k562, 16 h, 0.1 µM
[20] = target: T1, von Hippel-Lindau disease tumor suppressor/Tyrosine-protein kinase ABL1/Breakpoint cluster region protein; assay: Protac activity against VHL/BCR-ABL in human K562 cells assessed as induction of BCR-ABL degradation by Western blot analysis; assay type: cell-based
[21] = target: von Hippel-Lindau disease tumor suppressor/Tyrosine-protein kinase ABL2 (Homo sapiens) (UniProt P42684+P40337); assay: Protac activity against VHL/ABL2 in human K562 cells assessed as reduction in ABL2 protein levels at 1 to 100 nM incubated for 16 hrs by Western blot analysis; assay type: cell-based
[22] = target: T2, Bcr/Abl fusion protein (Homo sapiens); assay: Inhibition of BCR-ABL in human K562 cells assessed as reduction in STAT5 phosphorylation at 1 to 100 nM by Western blot analysis; assay type: cell-based
[23] = target: T1, von Hippel-Lindau disease tumor suppressor/Tyrosine-protein kinase ABL1/Breakpoint cluster region protein; assay: Protac activity against VHL/BCR-ABL (unknown origin) expressed in human U937 cells assessed as induction of BCR-ABL degradation incubated for 16 hrs by Western blot analysis; assay type: cell-based
HL-60 = assay: Growth inhibition of human HL60 cells incubated for 2 days by CCK8 assay; assay type: functional, cell-based
[24] = target: von Hippel-Lindau disease tumor suppressor/Ephrin type-B receptor 4 (Homo sapiens) (UniProt P54760+P40337); assay: Protac activity against VHL/EPHB4 in human K562 cells assessed as reduction in EPHB4 protein levels at 1 to 100 nM incubated for 16 hrs by Western blot analysis; assay type: cell-based
SUP-B15 = assay: Growth inhibition of human SUP-B15 cells incubated for 2 days by CCK8 assay; assay type: functional, cell-based

Sequence of von Hippel-Lindau disease tumor suppressor/Tyrosine-protein kinase Yes (Homo sapiens) (P07947 whole entry, looked up): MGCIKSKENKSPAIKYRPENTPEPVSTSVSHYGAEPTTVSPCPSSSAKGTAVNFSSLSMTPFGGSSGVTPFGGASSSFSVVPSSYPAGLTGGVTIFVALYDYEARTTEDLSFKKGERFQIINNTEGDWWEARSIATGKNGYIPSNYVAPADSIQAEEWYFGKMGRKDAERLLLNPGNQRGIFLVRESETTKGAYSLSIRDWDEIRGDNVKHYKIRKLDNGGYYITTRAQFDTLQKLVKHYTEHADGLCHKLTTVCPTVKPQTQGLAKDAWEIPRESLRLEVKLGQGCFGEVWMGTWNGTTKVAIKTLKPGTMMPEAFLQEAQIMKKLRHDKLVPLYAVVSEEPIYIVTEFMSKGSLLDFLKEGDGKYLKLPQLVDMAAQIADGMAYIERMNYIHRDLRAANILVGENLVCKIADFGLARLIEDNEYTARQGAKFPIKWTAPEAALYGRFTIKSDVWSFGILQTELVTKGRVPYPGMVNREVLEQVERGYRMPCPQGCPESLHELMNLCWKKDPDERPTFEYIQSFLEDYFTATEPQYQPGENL
Sequence of von Hippel-Lindau disease tumor suppressor/Tyrosine-protein kinase Yes (Homo sapiens) (P40337 whole entry, looked up): as the sequence (P40337 whole entry, looked up) above
Sequence of von Hippel-Lindau disease tumor suppressor/Proto-oncogene tyrosine-protein kinase Src (Homo sapiens) (P12931 whole entry, looked up): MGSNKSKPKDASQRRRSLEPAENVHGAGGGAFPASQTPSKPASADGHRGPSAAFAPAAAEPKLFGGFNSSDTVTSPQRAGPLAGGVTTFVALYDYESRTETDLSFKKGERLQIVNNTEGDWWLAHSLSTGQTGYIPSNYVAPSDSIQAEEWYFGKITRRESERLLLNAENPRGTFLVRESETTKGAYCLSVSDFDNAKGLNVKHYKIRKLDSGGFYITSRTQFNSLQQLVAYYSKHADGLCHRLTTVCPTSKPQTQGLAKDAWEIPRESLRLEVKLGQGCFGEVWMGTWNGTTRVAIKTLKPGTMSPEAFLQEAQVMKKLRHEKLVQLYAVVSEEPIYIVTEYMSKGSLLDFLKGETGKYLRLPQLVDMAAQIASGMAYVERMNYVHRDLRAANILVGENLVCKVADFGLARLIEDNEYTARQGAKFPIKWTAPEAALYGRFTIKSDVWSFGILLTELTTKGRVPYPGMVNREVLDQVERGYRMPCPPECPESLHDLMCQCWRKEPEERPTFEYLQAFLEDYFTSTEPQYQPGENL
Sequence of von Hippel-Lindau disease tumor suppressor/Proto-oncogene tyrosine-protein kinase Src (Homo sapiens) (P40337 whole entry, looked up): as the sequence (P40337 whole entry, looked up) above

## Cc1nc(Nc2ncc(C(=O)Nc3c(C)cccc3Cl)s2)cc(N2CCN(C(=O)CCCCCCC(=O)N[C@H](C(=O)N3C[C@H](O)C[C@H]3C(=O)NCc3ccc(-c4scnc4C)cc3)C(C)(C)C)CC2)n1
KU812 cell line
  growth inhibition (GI): Active
[1]
  Activity: inactive
[2]
  Activity: inactive
[3]
  Activity: Dose-dependent effect
[4]
  Activity: Active
[5]
  Activity: inactive
[6]
  Activity: Dose-dependent effect
K562 [7]
  Activity: Active
[8]
  Activity: Tde
[9]
  inhibition: Active
[10]
  Activity: Active
[11]
  Activity: Dose-dependent effect
HEK293
  growth inhibition (GI): Non-Toxic
[12]
  Activity: Dose-dependent effect
[13]
  Activity: inactive
[14]
  Activity: Dose-dependent effect
K562 [15]
  Activity: Non-Toxic
[16]
  Activity: Dose-dependent effect
K562 [17]
  Activity: Non-Toxic
[18]
  Activity: inactive
K562 [19]
  Activity: Non-Toxic
[20]
  Activity: Dose-dependent effect
  DC50: 8.5 nM
[21]
  Activity: Dose-dependent effect
[22]
  inhibition: Active
[23]
  Activity: Dose-dependent effect
HL-60
  growth inhibition (GI): inactive
[24]
  Activity: Dose-dependent effect
SUP-B15
  growth inhibition (GI): Active
